From US20230326554A1, “IDENTIFYING TREATMENT RESPONSE SIGNATURES” (Rutgers, The State University of New Jersey, priority 2022, published 2023)

Key:
Type in all cases: cell-based, human
C42B-EnzaRes cells [1] = assay: Boyden chamber-based in vitro migration assay; details: for cell migration with NME2 knockdown added: C42B-EnzaRes cells with knockdown of NME2
Experimental: (§1) FIGS. 21A-21F show MYC targeting is beneficial for patients in Enzalutamide-resistant conditions. (FIG. 21A) Drug sensitivity curves of Enzalutamide-naïve, or Enzalutamide-resistant (EnzaRes) C42B cells treated with MYCi975. (FIG. 21B) Colony formation assay using Enzalutamide-resistant (EnzaRes) C42B cells in Intact (treated with DMSO), treated with Enzalutamide (10 μM), MYCi975 (2 μM), or a combination of Enzalutamide+MYCi975 (10 μM+2 μM). Cells were grown in the presence of respective drugs. Representative images are shown. P-value was estimated using a one-tailed Welch t-test. (FIG. 21C) Boyden chamber-based in vitro migration assay using Enzalutamide-resistant (EnzaRes) C42B cells in Intact (treated with DMSO), treated with Enzalutamide (10 μM), MYCi975 (2 μM), or a combination of Enzalutamide+MYCi975 (10 μM+2 μM). Bars represent the quantification of Crystal Violet trapped by migrated cells. P-value was estimated using a one-tailed Welch t-test. (FIG. 21D) Expression of NME2 in Intact and Enzalutamide-resistant (EnzaRes) C42B cells, using the qRT-PCR. P-value was estimated using the one-tailed Welch t-test. (FIG. 21E) Two different siRNAs targeting NME2 were used to downregulate NME2 (left panel) and its effect on MYC expression using qRT-PCR is shown (right panel). (FIG. 21F) Boyden chamber-based in vitro migration assay using Enzalutamide-resistance (EnzaRes) C42B cells in Intact (treated with DMSO) or treated with a combination of Enzalutamide+MYCi975 (10 μM+2 μM) with or without knockdown of NME2. Bars represent the quantification of Crystal Violet trapped by migrated cells. * p-value<0.05, ** p-value≤0.01, *** p-value≤0.001

LNCaP cells = assay: dose-response cell viability assay; details: Enzalutamide-naïve and Enzalutamide-resistant conditions, varying doses, dose-dependent
Experimental: (§2) FIGS. 22A and 22B show MYC inhibition reduces viability and colony formation in Enzalutamide resistant conditions. (FIG. 22A) Drug response curves of Enzalutamide naïve LNCaP or Enzalutamide-resistant LNCaP cells treated with Enzalutamide and/or MYC-i975. (FIG. 22B) Colony formation assay using Enzalutamide-resistant LNCaP cells t(LNCaP-Enza-Res) in intact (treated with DMSO), treated with enzalutamide (10 μM), MYC-i975 (2 μM), or a combination of Enzalutamide+MYC-i975 (10 μM+2 μM). Cells were grown in the presence of respective drugs. Bars represent quantification of Crystal Violet trapped by migrated cells. P-value is estimated utilizing one-tailed Welch t-test. * p<0.05, *** p≤0.001.
(§3) Generation of Enzalutamide-resistant cell lines: LNCaP (clone FDG) and C42B cells were purchased from ATCC and were grown in RPMI1640 media (GIBCO # 11875093) supplemented with 10% Fetal Bovine Serum (FBS, Corning Cat#35-011-CV) and maintained at […] in and 5% CO2. Enzalutamide powder was purchased from Sellekchem (cat #S1250) and re-suspended in DMSO. Cells were plated in 6 well plates and treated either with DMSO, or with Enzalutamide (20 uM), refreshed every 4 days for up to 3 months until the resistance emerged. RNA from cells was extracted on indicated days using the methods described below. […]

C42B cells = assay: dose-response cell viability assay; details: Enzalutamide-naïve and Enzalutamide-resistant conditions, varying doses, dose-dependent
Experimental: as §1, with “(FIG. 21E) Two different siRNAs targeting NME2 were used to downregulate NME2 (left panel) and its effect on MYC expression using qRT-PCR is shown (right panel). (FIG. 21F) Boyden chamber-based in vitro migration assay using Enzalutamide-resistance (EnzaRes) C42B cells in Intact (treated with DMSO) or treated with a combination of Enzalutamide+MYCi975 (10 μM+2 μM) with or without knockdown of NME2.” left out, “p-value≤0.001 […]” for “p-value≤0.001”

LNCaP-EnzaRes cells = assay: colony formation assay; details: MYCi975 2 μM, Enzalutamide 10 μM, compared to Intact (DMSO)
Experimental: as §2, §3

C42B-EnzaRes cells [2] = assay: colony formation assay; details: MYCi975 2 μM, Enzalutamide 10 μM, compared to Intact (DMSO)
Experimental: as §1, with “(FIG. 21E) Two different siRNAs targeting NME2 were used to downregulate NME2 (left panel) and its effect on MYC expression using qRT-PCR is shown (right panel). (FIG. 21F) Boyden chamber-based in vitro migration assay using Enzalutamide-resistance (EnzaRes) C42B cells in Intact (treated with DMSO) or treated with a combination of Enzalutamide+MYCi975 (10 μM+2 μM) with or without knockdown of NME2.” left out, “p-value≤0.001 […]” for “p-value≤0.001”

MYC = assay: doxycycline-inducible shRNA knockdown of NME2, Western blot; details: C4-2B cells, 0-2000 ng/mL doxycycline for 96 hours
Experimental: Finally, C4-2B cells expressing doxycycline-inducible shRNA targeting NME2 were generated using the targeting sequence […] (SEQ ID NO: 9). Cells were treated with 0-2000 ng/mL doxycycline for 96 hours and NME2 and MYC expression were evaluated by Western blot.

Compound	cell migration with NME2 knockdown added (C42B-EnzaRes cells [1])	cell viability (LNCaP cells)	cell viability (C42B cells)	cell migration (C42B-EnzaRes cells [1]; C42B-EnzaRes cells, MYCi975 2 μM, Enzalutamide 10 μM, compared to Intact (DMSO))	colony formation (LNCaP-EnzaRes cells)	colony formation (C42B-EnzaRes cells [2])	MYC expression (MYC)
CNC(=O)c1ccc(N2C(=S)N(c3ccc(C#N)c(C(F)(F)F)c3)C(=O)C2(C)C)cc1F [Enzalutamide]	low metastatic capability	–	–	–	–	–	–
Cn1nc(C(F)(F)F)cc1-c1ccc(OCc2ccc(Cl)cc2)c(-c2ccc(Cl)c(C(F)(F)F)c2)c1O [MYCi975]	further reduced	striking reduction of the cell viability	striking reduction of the cell viability	significant reduction in cell migration	reduced the colony formation	reduced the colony formation	–
shRNA targeting NME2: doxycycline-inducible shRNA targeting NME2, targeting sequence GAAATCAGCCTATGGTTTAAG (SEQ ID NO: 9)	–	–	–	–	–	–	suppresses MYC expression
